We go through 1 molecule from patent publication US20020065314A1, “COMPOSITIONS AND METHOD FOR STIMULATING HAIR GROWTH” (priority 1995, published 2002).

This experiment relates to C57BL/KsJ db/+ and C57BL/KsJ db/db mice. Description: Effect of isobutyl cyanoacrylate on hair growth, topical. Type of experiment: in vivo, mouse. Conditions: C57BL/KsJ +/+, 10 μl cm^−2 topical.

Turning to `C=C(C#N)C(=O)OCCCC` [n-butyl cyanoacrylate], the Hair growth is on record as 3+ (high hair regeneration with an area larger than 50% of the treated area).
